# PMC5548886 (Cancer Medicine, 2017)
# What was measured:
# Experiment in all cases: IHC of tumor biopsies, H-score change on-treatment vs pretreatment
# Assay type in all cases: in vivo, human
# [1] = test system: p-AKT473; details: DLs 7 and 7.1, n 3
# Experimental: (§1) Pharmacodynamic markers were examined using peripheral blood samples, tumor and nevi biopsies (when available) and tumor imaging. BRAF mutation status was determined by Sanger sequencing. Pharmacodynamic markers analyzed, in available tumor/nevus samples obtained before treatment or archival tissue and during treatment on cycle 1, day 8 or day 15, including cytoplasmic p‐MEK, p‐ERK, BIM, c‐KIT, p‐AKT473, pS6 and PTEN, and nuclear p‐ERK, Ki‐67, PARP, cyclin D1, MITF, p27, and p53. Biomarker expression was determined by calculating the percentage of change in the H‐score (14) between on‐treatment and fresh/archival pretreatment specimens. Blood levels of VEGFR‐2 and were assessed before and at multiple time points while on treatment using enzyme‐linked immunosorbent assay (ELISA). […] Changes in standard uptake value (SUV) were determined by a blinded, independent central imaging review panel. Complete metabolic response (CMR) was complete resolution of tumor FDG‐PET uptake so SUV is the same as background. Partial metabolic response (PMR) decrease in sum of the tumor SUV of ≥25% from the baseline scan. Progressive metabolic disease (PMD) was defined as an increase in tumor SUV of ≥25% from the baseline scan, or the appearance of new FDG‐PET uptake in metastatic lesions. Stable metabolic disease (SMD) was defined as a change in tumor SUV between the PMR and PMD criteria.
# [2] = test system: PARP
# Experimental: as §1
# [3] = test system: BIM
# Experimental: as §1
# [4] = test system: c-KIT
# Experimental: as §1
# [5] = test system: cytoplasmic p-ERK
# Experimental: as §1
# [6] = test system: p53
# Experimental: as §1
# [7] = test system: p27
# Experimental: as §1
smiles,measurement,setting,value
Cn1c(Nc2ccc(C(F)(F)F)cc2)nc2cc(Oc3ccnc(-c4ncc(C(F)(F)F)[nH]4)c3)ccc21 [RAF265],"PAKT473 % change vs pretreatment, Mean (SD)",[1],0%
same,"PAKT473 % change vs pretreatment, Median",[1],0%
same,"PARP % change vs pretreatment, Mean (SD)","[2]; All patients, n 14",+89.1 (172.3) %
same,"PARP % change vs pretreatment, Median","[2]; All patients, n 14",+33.3%
same,"PARP % change vs pretreatment, Mean (SD)","[2]; DL 6, n 3",+20.00 (121.2) %
same,"PARP % change vs pretreatment, Median","[2]; DL 6, n 3",0.00%
same,"PARP % change vs pretreatment, Mean (SD)","[2]; DLs 1 - 4, n 8",+65.1 (180.5) %
same,"PARP % change vs pretreatment, Median","[2]; DLs 1 - 4, n 8",-20%
same,"PARP % change vs pretreatment, Mean (SD)","[2]; DLs 7 and 7.1, n 3",+222.2 (167.8) %
same,"PARP % change vs pretreatment, Median","[2]; DLs 7 and 7.1, n 3",+200.00%
same,"BIM % change vs pretreatment, Mean (SD)","[3]; All patients, n 14",-17.00 (54.5) %
same,"BIM % change vs pretreatment, Median","[3]; All patients, n 14",0%
same,"BIM % change vs pretreatment, Mean (SD)","[3]; DL 5, n 1",-100%
same,"BIM % change vs pretreatment, Median","[3]; DL 5, n 1",-100%
same,"BIM % change vs pretreatment, Mean (SD)","[3]; DL 6, n 2",-7.1 (11.1) %
same,"BIM % change vs pretreatment, Median","[3]; DL 6, n 2",-7.1%
same,"BIM % change vs pretreatment, Mean (SD)","[3]; DLs 1 - 4, n 8",-18 (65.1) %
same,"BIM % change vs pretreatment, Median","[3]; DLs 1 - 4, n 8",-14.3%
same,"BIM % change vs pretreatment, Mean (SD)","[3]; DLs 7 and 7.1, n 3",+6.7 (5.8) %
same,"BIM % change vs pretreatment, Median","[3]; DLs 7 and 7.1, n 3",+10%
same,"CKIT % change vs pretreatment, Median","[4]; All patients, n 8",0%
same,"CKIT % change vs pretreatment, Mean (SD)","[4]; DL 6, n 1",0%
same,"CKIT % change vs pretreatment, Median","[4]; DL 6, n 1",0%
same,"CKIT % change vs pretreatment, Mean (SD)","[4]; DLs 1 - 4, n 4",-60 (80) %
same,"CKIT % change vs pretreatment, Median","[4]; DLs 1 - 4, n 4",-100%
same,"CKIT % change vs pretreatment, Mean (SD)","[4]; DLs 7 and 7.1, n 3",0%
same,"CKIT % change vs pretreatment, Median","[4]; DLs 7 and 7.1, n 3",0%
same,"p-ERK IHC staining, on-treatment versus pretreatment",[5]; 23 patients,dose‐dependent p‐ERK inhibition
same,"cytoplasmic pERK % change vs pretreatment, Mean (SD)","[5]; All patients, n 13",-3.6 (48.6) %
same,"cytoplasmic pERK % change vs pretreatment, Median","[5]; All patients, n 13",-11.8%
same,"cytoplasmic pERK % change vs pretreatment, Mean (SD)","[5]; DL 5, n 2",+27.1 (56) %
same,"cytoplasmic pERK % change vs pretreatment, Median","[5]; DL 5, n 2",+27.1%
same,"cytoplasmic pERK % change vs pretreatment, Mean (SD)","[5]; DL 6, n 5",-27.0 (40.9) %
same,"cytoplasmic pERK % change vs pretreatment, Median","[5]; DL 6, n 5",-50.00%
same,"cytoplasmic pERK % change vs pretreatment, Mean (SD)","[5]; DLs 1 - 4, n 2",+52.3 (80) %
same,"cytoplasmic pERK % change vs pretreatment, Median","[5]; DLs 1 - 4, n 2",+52.3%
same,"cytoplasmic pERK % change vs pretreatment, Mean (SD)","[5]; DLs 7 and 7.1, n 4",-17.8 (11.5) %
same,"cytoplasmic pERK % change vs pretreatment, Median","[5]; DLs 7 and 7.1, n 4",-13.5%
same,p-ERK expression change,[5]; patients treated at DL1-5,increase in p‐ERK expression
same,p-ERK abundance change,[5]; patients treated at DL 6-7.1,moderately decreased p‐ERK abundance
same,"P53 % change vs pretreatment, Mean (SD)","[6]; All patients, n 20",+42.14 (195.033) %
same,"P53 % change vs pretreatment, Mean (SD)","[6]; DL 5, n 2",+82.33(190.5) %
same,"P53 % change vs pretreatment, Median","[6]; DL 5, n 2",+82.4%
same,"P53 % change vs pretreatment, Mean (SD)","[6]; DL 6, n 4",+49.32 (123.273) %
same,"P53 % change vs pretreatment, Median","[6]; DL 6, n 4",-3.8%
same,"P53 % change vs pretreatment, Mean (SD)","[6]; DLs 1 - 4, n 10",-27.30 (49.484) %
same,"P53 % change vs pretreatment, Median","[6]; DLs 1 - 4, n 10",-29.2%
same,"P53 % change vs pretreatment, Mean (SD)","[6]; DLs 7 and 7.1, n 4",+188.5 (400.62) %
same,"P53 % change vs pretreatment, Median","[6]; DLs 7 and 7.1, n 4",0%
same,"P27 % change vs pretreatment, Mean (SD)","[7]; All patients, n 20",+86 (251.9) %
same,"P27 % change vs pretreatment, Median","[7]; All patients, n 20",+5%
same,"P27 % change vs pretreatment, Mean (SD)","[7]; DL 5, n 2",-40 (56.6) %
same,"P27 % change vs pretreatment, Median","[7]; DL 5, n 2",-40%
same,"p27 abundance, median increase",[7]; DL 6,30.4%
same,"P27 % change vs pretreatment, Mean (SD)","[7]; DL 6, n 5",+156.4 (312.2) %
same,"P27 % change vs pretreatment, Median","[7]; DL 6, n 5",+30.4%
same,"p27 abundance, median increase",[7]; DL 7/7.1,72.2%
same,"P27 % change vs pretreatment, Mean (SD)","[7]; DLs 1 - 4, n 9",-2.2 (44) %
same,"P27 % change vs pretreatment, Median","[7]; DLs 1 - 4, n 9",0%
same,"P27 % change vs pretreatment, Mean (SD)","[7]; DLs 7 and 7.1, n 4",+261.1 (427.3) %
same,"P27 % change vs pretreatment, Median","[7]; DLs 7 and 7.1, n 4",+72.2%
